Experimental data reported in ChEMBL document CHEMBL1122080, “2- and 6-methyl-1,4-naphthoquinone derivatives and potential bioreductive alkylating agents” (1982).

How the values were obtained:
Type in all cases: functional
[1] = tested on: Mus musculus; experiment: Ratio of the survival time of treated to control animals at dose 2.5 mg/kg
[2] = tested on: Mus musculus; experiment: Ratio of the survival time of treated to control animals at dose 20 mg/kg
[3] = tested on: Mus musculus; experiment: Average weight change in mice bearing sarcoma 180 ascites cells at dose 10 mg/kg
[4] = tested on: Mus musculus; experiment: Ratio of the survival time of treated to control animals at dose 5 mg/kg
[5] = tested on: Mus musculus; experiment: Average weight change in mice bearing sarcoma 180 ascites cells at dose 5 mg/kg
[6] = tested on: Mus musculus; experiment: Average weight change in mice bearing sarcoma 180 ascites cells at dose 2.5 mg/kg
[7] = tested on: Mus musculus; experiment: Average weight change in mice bearing sarcoma 180 ascites cells at dose 20 mg/kg
[8] = tested on: Mus musculus; experiment: Ratio of the survival time of treated to control animals at dose 10 mg/kg

Row | Compound | T/C [1] | T/C [2] | Average weight change [3] | T/C [4] | Average weight change [5] | Average weight change [6] | Average weight change [7] | T/C [8]
1 | O=C1C=C(CBr)C(=O)c2ccccc21 | 1.61 | 1.69 | -7.7% | 1.73 | -5.4% | 1.7% | -9.1% | 1.49
2 | O=C1C=CC(=O)c2cc(CCl)ccc21 |  | 0.22 | -13.5% | 1.38 | -10.4% |  |  | 1.05
3 | O=C1C=CC(=O)c2cc(CO)ccc21 | 1.16 |  |  |  |  | -9.1% |  | 0.17
4 | CS(=O)(=O)OCc1ccc2c(c1)C(=O)C=CC2=O |  | 1.44 | -11.8% | 1.71 | -6.3% |  | -13.3% | 1.43
5 | O=C(NCCCl)OCC1=CC(=O)c2ccccc2C1=O |  | 1.96 | -11.4% | 2.08 | -4.6% |  | -13.8% | 1.71
6 | O=C1C=CC(=O)c2cc(CBr)ccc21 | 2.07 | 0.57 | -11.3% | 1.46 | -7.8% | -4.2% | -12.5% | 1.42
7 | O=C(NCCCl)OCc1ccc2c(c1)C(=O)C=CC2=O |  | 0.5 | -11.7% | 1.47 | -9% |  | -17.3% | 1.63
8 | Cc1ccc(S(=O)(=O)OCC2=CC(=O)c3ccccc3C2=O)cc1 |  | 1.62 | -4.4% | 1.77 | 2.8% |  | -7.4% | 2.16
9 | CCOCc1ccc2c(c1)C(=O)C=CC2=O |  | 0.42 | -10.3% | 1.32 | -6.4% |  |  | 0.97
10 | Cc1ccc(S(=O)(=O)OCc2ccc3c(c2)C(=O)C=CC3=O)cc1 |  | 1.64 | -11.6% | 1.44 | -3.8% |  | -15.2% | 1.82
11 | COCC1=CC(=O)c2ccccc2C1=O |  | 1.07 | 1.6% | 0.98 | 17% |  | -19% | 1.38
12 | O=C1C=C(CCl)C(=O)c2ccccc21 |  | 1.3 | -9.8% | 1.4 | -2% |  | -16.4% | 1.47
13 | CC(=O)OCC1=CC(=O)c2ccccc2C1=O |  | 0.7 | -14.4% | 1.66 | -9.3% |  | -10.2% | 1.62
14 | CNC(=O)OCC1=CC(=O)c2ccccc2C1=O |  | 0.51 | -10.5% | 1.39 | -12.6% |  | -11.4% | 1.51
15 | Cc1ccc2c(c1)C(=O)C=CC2=O |  | 0.26 | -11.1% | 1.09 | -11.5% |  |  | 0.38
16 | CC(=O)OCc1ccc2c(c1)C(=O)C=CC2=O |  | 0.48 |  | 1.35 | -2.9% |  | -7.4% | 0.93
17 | O=C1C=C(CO)C(=O)c2ccccc21 |  | 0.22 | -15.2% | 1.16 | -6.4% |  |  | 0.45
18 | CS(=O)(=O)OCC1=CC(=O)c2ccccc2C1=O |  | 1.41 | -8.3% | 1.92 | -6.3% |  | -8.8% | 1.57
19 | CNC(=O)OCc1ccc2c(c1)C(=O)C=CC2=O |  | 0.81 | -7.8% | 1.71 | -7.6% |  | -10.8% | 1.61
20 | CC1=CC(=O)c2ccccc2C1=O [MENADIONE] |  | 1.34 | 17.3% | 0.85 | 18.7% |  | -2% | 1.03
